From PubChem BioAssay AID1224911

Target: Serine/threonine-protein kinase PAK 2 (Homo sapiens) (UniProt Q13177)
Test: PubChem AID 1224911
Settings: Caliper in vitro kinase assay, phosphorylated PAK2

Serine/threonine-protein kinase PAK 2 (Homo sapiens), sequence (Q13177 whole entry, looked up): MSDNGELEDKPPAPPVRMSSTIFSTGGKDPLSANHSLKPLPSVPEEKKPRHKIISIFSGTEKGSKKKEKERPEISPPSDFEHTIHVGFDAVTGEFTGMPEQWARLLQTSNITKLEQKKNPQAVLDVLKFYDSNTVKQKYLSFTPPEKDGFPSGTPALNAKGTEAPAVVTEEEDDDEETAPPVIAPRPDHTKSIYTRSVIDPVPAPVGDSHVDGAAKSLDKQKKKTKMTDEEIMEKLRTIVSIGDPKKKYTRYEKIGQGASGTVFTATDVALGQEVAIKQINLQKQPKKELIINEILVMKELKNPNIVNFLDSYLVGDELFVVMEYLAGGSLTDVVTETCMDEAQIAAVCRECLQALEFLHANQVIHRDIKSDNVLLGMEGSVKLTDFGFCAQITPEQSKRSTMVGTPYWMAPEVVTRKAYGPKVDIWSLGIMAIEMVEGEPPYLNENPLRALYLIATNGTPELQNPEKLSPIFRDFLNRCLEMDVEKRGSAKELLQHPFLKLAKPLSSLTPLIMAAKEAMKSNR

- IC50: 720 nM
SMILES: CC(C)NC(=O)N1CC[C@H](N=C2Nc3cc(F)ccc3N(CC(F)F)c3ccc(Cl)cc32)C1
